Source: ChEMBL document CHEMBL4673175, “An epigrammatic status of the azole-based antimalarial drugs” (RSC Med Chem, 2020)
Values after ≈ are worked out from the molar mass of the structure shown.

Legend:
Hemozoin = test: Inhibition of beta-hematin formation at 5 to 100 mM incubated for 48 hrs; conditions: dose 5-100 mM
Plasmodium falciparum [1] = test: Antimalarial activity against chloroquine sensitive Plasmodium falciparum assessed as reduction in parasite growth incubated for 48 hrs; assay type: functional, organism-based
Plasmodium = test: Antimalarial activity against Plasmodium; assay type: functional
[2] = Selectivity index, ratio of EC50 for cytotoxicity against […] cells to EC50 for antiplasmodial activity against Plasmodium falciparum FCR-3 ATCC 30932 infected in human erythrocytes; assay type: toxicity, cell-based; conditions: mouse, read-out: Ratio EC50
Plasmodium falciparum [3] = test: Antiplasmodial activity against chloroquine sensitive Plasmodium falciparum FCR-3 infected in human erythrocytes incubated for 72 hrs by giemsa staining based assay; assay type: functional, organism-based; conditions: FCR-3, 72 h

| SMILES | inhibition (Hemozoin) [%] | IC50 (Plasmodium falciparum [1]) [mg/L] | further results |
| --- | --- | --- | --- |
| O=C(Nc1ccc(Cl)cc1)c1ccc2[nH]c(-c3ccc([N+](=O)[O-])s3)nc2c1 | < 98 |  |  |
| Cc1nn(-c2ccccc2)c(-n2ccnc2)c1C1CC(c2ccc(F)cc2)=NO1 (stereo unspecified) |  | 0.012 (≈ 0.031 µM) |  |
| COc1ccc(NC(=S)N/N=C(\C)c2nc3cc(Cl)ccc3[nH]2)cc1 |  |  | IC50 (Plasmodium): 0.003 mg/L (≈ 0.00802 µM) |
| O=C(Nc1ccccc1Cl)c1ccc2[nH]c(-c3ccc([N+](=O)[O-])o3)nc2c1 | < 98 |  |  |
| Cc1nn(-c2ccccc2)c(-n2cncn2)c1C1=CC(c2ccc(O)cc2)=NC2Nc3ccccc3N12 (stereo unspecified) |  | 0.03 (≈ 0.0617 µM) |  |
| CCNC(=S)N/N=C(\C)c1nc2cc(Cl)ccc2[nH]1 |  |  | IC50 (Plasmodium): 0.003 mg/L (≈ 0.0101 µM) |
| Cc1nn(-c2ccccc2)c(-n2ccnc2)c1C1CC(c2ccccc2)=NO1 (stereo unspecified) |  | 0.012 (≈ 0.0325 µM) |  |
| COc1cc(NC(=O)c2ccc3[nH]c(-c4ccc([N+](=O)[O-])o4)nc3c2)cc(OC)c1OC | < 98 |  |  |
| Cc1ccc(NC(=O)c2ccc3[nH]c(-c4ccc([N+](=O)[O-])s4)nc3c2)c(C)c1 | < 98 |  |  |
| C/C(=N\NC(=S)NCc1ccccc1)c1nc2cc(Cl)ccc2[nH]1 |  |  | IC50 (Plasmodium): 0.003 mg/L (≈ 0.00838 µM) |
| C/C(=N\NC(=S)Nc1ccc(F)cc1)c1nc2cc(Cl)ccc2[nH]1 |  |  | IC50 (Plasmodium): 0.003 mg/L (≈ 0.00829 µM) |
| Cc1ccc(C)c(NC(=O)c2ccc3[nH]c(-c4ccc([N+](=O)[O-])s4)nc3c2)c1 | < 98 |  |  |
| COc1ccc(C2=NC3Nc4ccccc4N3C(c3c(C)nn(-c4ccccc4)c3-n3cncn3)=C2)cc1 (stereo unspecified) |  | 0.03 (≈ 0.0599 µM) |  |
| COc1ccc(C2=NNC(c3c(C)nn(-c4ccccc4)c3-n3cnc(C)c3)C2)cc1 (stereo unspecified) |  | 0.012 (≈ 0.0291 µM) |  |
| Cc1ccc(NC(=O)c2ccc3[nH]c(-c4ccc([N+](=O)[O-])o4)nc3c2)cc1C | < 98 |  |  |
| O=C(Nc1ccc(Br)cc1)c1ccc2[nH]c(-c3ccc([N+](=O)[O-])o3)nc2c1 | < 98 |  |  |
| O=C(Nc1ccc(C(F)(F)F)cc1)c1ccc2[nH]c(-c3ccc([N+](=O)[O-])s3)nc2c1 | < 98 |  |  |
| Cc1nn(-c2ccccc2)c(-n2cncn2)c1C1=CC(c2cccs2)=NC2Nc3ccccc3N12 (stereo unspecified) |  | 0.03 (≈ 0.0629 µM) |  |
| Cc1nn(-c2ccccc2)c(-n2cncn2)c1C1=CC(c2ccccc2)=NC2Nc3ccccc3N12 (stereo unspecified) |  | 0.03 (≈ 0.0638 µM) |  |
| O=C(Nc1ccc(Cl)cc1)c1ccc2[nH]c(-c3ccc([N+](=O)[O-])o3)nc2c1 | < 98 |  |  |
| Cc1cn(-c2c(C3CC(c4ccccc4)=NO3)c(C)nn2-c2ccccc2)cn1 (stereo unspecified) |  | 0.012 (≈ 0.0313 µM) |  |
| COc1cccc(NC(=O)c2ccc3[nH]c(-c4ccc([N+](=O)[O-])o4)nc3c2)c1 | < 98 |  |  |
| CCn1c(=O)/c(=C2\Sc3ccccc3N2C)s/c1=C/c1cc[n+](CCO)cc1 |  |  | selectivity ratio [2]: > 100; EC50 (Plasmodium falciparum [3]): 4 nM |
| Cc1cn(-c2c(C3CC(c4ccc(O)cc4)=NN3)c(C)nn2-c2ccccc2)cn1 (stereo unspecified) |  | 0.012 (≈ 0.0301 µM) |  |
| Cc1nn(-c2ccccc2)c(-n2ccnc2)c1C1CC(c2ccc(F)cc2)=NN1 (stereo unspecified) |  | 0.012 (≈ 0.0311 µM) |  |
| Cc1nn(-c2ccccc2)c(-n2ccnc2)c1C1=CC(c2cccs2)=NC2Nc3ccccc3N12 (stereo unspecified) |  | 0.03 (≈ 0.0631 µM) |  |
| COc1ccc(C2=NNC(c3c(C)nn(-c4ccccc4)c3-n3ccnc3)C2)cc1 (stereo unspecified) |  | 0.012 (≈ 0.0301 µM) |  |

| SMILES | inhibition (Hemozoin) [%] | IC50 (Plasmodium falciparum [1]) [mg/L] | further results |
| --- | --- | --- | --- |
| C/C(=N\NC(=S)Nc1ccccc1)c1nc2cc(Cl)ccc2[nH]1 |  |  | IC50 (Plasmodium): 0.003 mg/L (≈ 0.00872 µM) |
| COc1cc(NC(=O)c2ccc3[nH]c(-c4ccc([N+](=O)[O-])s4)nc3c2)cc(OC)c1OC | < 98 |  |  |
| Cc1nn(-c2ccccc2)c(-n2ccnc2)c1C1CC(c2ccc(-c3ccccc3)cc2)=NN1 (stereo unspecified) |  | 0.012 (≈ 0.027 µM) |  |
| CCn1c(=O)/c(=C2\Sc3ccccc3N2C)s/c1=C\c1cc[n+](C)c2ccccc12 |  |  | selectivity ratio [2]: > 100; EC50 (Plasmodium falciparum [3]): 4 nM |
| CCn1c(=O)/c(=C2\Sc3ccccc3N2C)s/c1=C\c1cc[n+](C)cc1 |  |  | selectivity ratio [2]: > 100; EC50 (Plasmodium falciparum [3]): 4 nM |
| C/C(=N\NC(N)=S)c1nc2cc(Cl)ccc2[nH]1 |  |  | IC50 (Plasmodium): 0.003 mg/L (≈ 0.0112 µM) |
| CN1/C(=c2\s/c(=C\c3cc[n+](C)cc3)n(Cc3ccccc3)c2=O)Sc2ccccc21 |  |  | selectivity ratio [2]: > 100; EC50 (Plasmodium falciparum [3]): 4 nM |
| C=CCn1c(=O)/c(=C2\Sc3ccccc3N2C)s/c1=C\c1cccc[n+]1C |  |  | selectivity ratio [2]: > 100; EC50 (Plasmodium falciparum [3]): 4 nM |
| Cc1cn(-c2c(C3CC(c4ccc(-c5ccccc5)cc4)=NN3)c(C)nn2-c2ccccc2)cn1 (stereo unspecified) |  | 0.012 (≈ 0.0262 µM) |  |
| CCn1c(=O)/c(=C2\Sc3ccccc3N2C)s/c1=C\c1cccc(-c2ccccc2)[n+]1C |  |  | selectivity ratio [2]: > 100; EC50 (Plasmodium falciparum [3]): 4 nM |
| C/C(=N\NC(=S)Nc1ccc(C)cc1)c1nc2cc(Cl)ccc2[nH]1 |  |  | IC50 (Plasmodium): 0.003 mg/L (≈ 0.00838 µM) |
| Cc1cccc(NC(=O)c2ccc3[nH]c(-c4ccc([N+](=O)[O-])s4)nc3c2)c1 | < 98 |  |  |
| CCCCNC(=S)N/N=C(\C)c1nc2cc(Cl)ccc2[nH]1 |  |  | IC50 (Plasmodium): 0.003 mg/L (≈ 0.00926 µM) |
| COc1cccc(NC(=O)c2ccc3[nH]c(-c4ccc([N+](=O)[O-])s4)nc3c2)c1 | < 98 |  |  |
| Cc1nn(-c2ccccc2)c(-n2ccnc2)c1C1CC(c2ccc(O)cc2)=NN1 (stereo unspecified) |  | 0.012 (≈ 0.0312 µM) |  |
| Cc1nn(-c2ccccc2)c(-n2ccnc2)c1C1=CC(c2ccc(F)cc2)=NC2Nc3ccccc3N12 (stereo unspecified) |  | 0.03 (≈ 0.0615 µM) |  |
| Cc1ccccc1NC(=O)c1ccc2[nH]c(-c3ccc([N+](=O)[O-])s3)nc2c1 | < 98 |  |  |
| Cc1nn(-c2ccccc2)c(-n2ccnc2)c1C1CC(c2ccccc2)=NN1 (stereo unspecified) |  | 0.012 (≈ 0.0326 µM) |  |
| C/C(=N\NC(=S)NC(C)(C)C)c1nc2cc(Cl)ccc2[nH]1 |  |  | IC50 (Plasmodium): 0.003 mg/L (≈ 0.00926 µM) |
| COc1ccccc1NC(=S)N/N=C(\C)c1nc2cc(Cl)ccc2[nH]1 |  |  | IC50 (Plasmodium): 0.003 mg/L (≈ 0.00802 µM) |
| Cc1ccccc1NC(=O)c1ccc2[nH]c(-c3ccc([N+](=O)[O-])o3)nc2c1 | < 98 |  |  |
| C/C(=N\NC(=S)Nc1ccc([N+](=O)[O-])cc1)c1nc2cc(Cl)ccc2[nH]1 |  |  | IC50 (Plasmodium): 0.003 mg/L (≈ 0.00772 µM) |
| Cc1ccc(C)c(NC(=O)c2ccc3[nH]c(-c4ccc([N+](=O)[O-])o4)nc3c2)c1 | < 98 |  |  |
| Cc1nn(-c2ccccc2)c(-n2ccnc2)c1C1=CC(c2cc[nH]c2)=NC2Nc3ccccc3N12 (stereo unspecified) |  | 0.03 (≈ 0.0654 µM) |  |
| COc1cccc(NC(=S)N/N=C(\C)c2nc3cc(Cl)ccc3[nH]2)c1 |  |  | IC50 (Plasmodium): 0.003 mg/L (≈ 0.00802 µM) |
| O=C(Nc1ccc(Br)cc1)c1ccc2[nH]c(-c3ccc([N+](=O)[O-])s3)nc2c1 | < 98 |  |  |
| COc1ccc(NC(=O)c2ccc3[nH]c(-c4ccc([N+](=O)[O-])s4)nc3c2)c(OC)c1 | < 98 |  |  |

| SMILES | inhibition (Hemozoin) [%] | IC50 (Plasmodium falciparum [1]) [mg/L] | further results |
| --- | --- | --- | --- |
| C/C(=N\NC(=S)NC(C)C)c1nc2cc(Cl)ccc2[nH]1 |  |  | IC50 (Plasmodium): 0.003 mg/L (≈ 0.00968 µM) |
| C/C(=N\NC(=S)NC(=O)c1ccccc1)c1nc2cc(Cl)ccc2[nH]1 |  |  | IC50 (Plasmodium): 0.003 mg/L (≈ 0.00807 µM) |
| Cc1cc(C)cc(NC(=O)c2ccc3[nH]c(-c4ccc([N+](=O)[O-])s4)nc3c2)c1 | < 98 |  |  |
| O=C(Nc1ccc(C(F)(F)F)cc1)c1ccc2[nH]c(-c3ccc([N+](=O)[O-])o3)nc2c1 | < 98 |  |  |
| Cc1nn(-c2ccccc2)c(-n2cncn2)c1C1=CC(c2cc[nH]c2)=NC2Nc3ccccc3N12 (stereo unspecified) |  | 0.03 (≈ 0.0653 µM) |  |
| Cc1cn(-c2c(C3CC(c4ccccc4)=NN3)c(C)nn2-c2ccccc2)cn1 (stereo unspecified) |  | 0.012 (≈ 0.0314 µM) |  |
| Cc1nn(-c2ccccc2)c(-n2cncn2)c1C1=CC(c2ccc(F)cc2)=NC2Nc3ccccc3N12 (stereo unspecified) |  | 0.03 (≈ 0.0614 µM) |  |
| Cc1cccc(NC(=O)c2ccc3[nH]c(-c4ccc([N+](=O)[O-])o4)nc3c2)c1 | < 98 |  |  |
| COc1ccc(NC(=O)c2ccc3[nH]c(-c4ccc([N+](=O)[O-])s4)nc3c2)cc1Cl | < 98 |  |  |
| C/C(=N\NC(=S)Nc1ccc(I)cc1)c1nc2cc(Cl)ccc2[nH]1 |  |  | IC50 (Plasmodium): 0.003 mg/L (≈ 0.00639 µM) |
| COc1ccc(NC(=O)c2ccc3[nH]c(-c4ccc([N+](=O)[O-])o4)nc3c2)cc1Cl | < 98 |  |  |
| C/C(=N\NC(=S)NC1CCCCC1)c1nc2cc(Cl)ccc2[nH]1 |  |  | IC50 (Plasmodium): 0.003 mg/L (≈ 0.00857 µM) |
| Cc1cc(C)cc(NC(=O)c2ccc3[nH]c(-c4ccc([N+](=O)[O-])o4)nc3c2)c1 | < 98 |  |  |
| COc1ccc(NC(=O)c2ccc3[nH]c(-c4ccc([N+](=O)[O-])o4)nc3c2)c(OC)c1 | < 98 |  |  |
| C/C(=N\NC(=S)Nc1ccc(Cl)cc1)c1nc2cc(Cl)ccc2[nH]1 |  |  | IC50 (Plasmodium): 0.003 mg/L (≈ 0.00793 µM) |
| Cc1cn(-c2c(C3CC(c4ccc(O)cc4)=NO3)c(C)nn2-c2ccccc2)cn1 (stereo unspecified) |  | 0.012 (≈ 0.03 µM) |  |
| Cc1nn(-c2ccccc2)c(-n2ccnc2)c1C1=CC(c2ccc(O)cc2)=NC2Nc3ccccc3N12 (stereo unspecified) |  | 0.03 (≈ 0.0618 µM) |  |
| COc1ccc(C2=NOC(c3c(C)nn(-c4ccccc4)c3-n3cnc(C)c3)C2)cc1 (stereo unspecified) |  | 0.012 (≈ 0.029 µM) |  |
| COc1ccc(C2=NOC(c3c(C)nn(-c4ccccc4)c3-n3ccnc3)C2)cc1 (stereo unspecified) |  | 0.012 (≈ 0.03 µM) |  |
| Cc1cn(-c2c(C3CC(c4ccc(F)cc4)=NO3)c(C)nn2-c2ccccc2)cn1 (stereo unspecified) |  | 0.012 (≈ 0.0299 µM) |  |
| Cc1nn(-c2ccccc2)c(-n2ccnc2)c1C1CC(c2ccc(-c3ccccc3)cc2)=NO1 (stereo unspecified) |  | 0.012 (≈ 0.0269 µM) |  |
| Cc1ccc(NC(=O)c2ccc3[nH]c(-c4ccc([N+](=O)[O-])s4)nc3c2)cc1C | < 98 |  |  |
| C/C(=N\NC(=S)Nc1ccc(Cl)cc1Cl)c1nc2cc(Cl)ccc2[nH]1 |  |  | IC50 (Plasmodium): 0.003 mg/L (≈ 0.00727 µM) |
| Cc1nn(-c2ccccc2)c(-n2ccnc2)c1C1CC(c2ccc(Br)cc2)=NO1 (stereo unspecified) |  | 0.012 (≈ 0.0268 µM) |  |
| O=C(Nc1ccccc1Cl)c1ccc2[nH]c(-c3ccc([N+](=O)[O-])s3)nc2c1 | < 98 |  |  |
| Cc1cn(-c2c(C3CC(c4ccc(Br)cc4)=NN3)c(C)nn2-c2ccccc2)cn1 (stereo unspecified) |  | 0.012 (≈ 0.026 µM) |  |
